Molecules are shown by their SMILES. pIC50: −log10 of the molar value.

The test has as its target T1, Angiotensin II-Rezeptor (Rattus norvegicus, UniProt P25095).
T1 construct: Das Gewebe (Rattenlunge) wird in Tris-Puffer; from tissue; host or cells: rat lung homogenate (membrane pellet, 20,000 x g)
T1 sequence (P25095 1-359): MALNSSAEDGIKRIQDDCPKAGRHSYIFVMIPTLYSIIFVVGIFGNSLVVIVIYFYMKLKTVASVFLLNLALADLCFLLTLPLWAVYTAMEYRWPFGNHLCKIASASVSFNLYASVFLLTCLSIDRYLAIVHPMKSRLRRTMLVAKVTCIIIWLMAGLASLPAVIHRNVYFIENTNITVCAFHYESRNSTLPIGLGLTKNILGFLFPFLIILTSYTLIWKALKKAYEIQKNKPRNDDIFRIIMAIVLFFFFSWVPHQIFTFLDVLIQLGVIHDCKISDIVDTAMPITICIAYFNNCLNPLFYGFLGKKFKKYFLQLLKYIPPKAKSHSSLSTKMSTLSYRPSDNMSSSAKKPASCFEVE
The experiment in a line: Angiotensin II receptor binding: displacement of [125I]-angiotensin II in rat lung homogenate. The settings on record: rat lung (Rattenlunge) homogenate, 50 pM [125I]-Angiotensin II, 60 min at 37°C, IC50 from dose-response curve; read-out: IC₅₀. The arrangement: species or system Ratte. The protocol:
Methodenbeschreibung Angiotensin II-Rezeptorbindung
Das Gewebe (Rattenlunge) wird in Tris-Puffer (50 mMol Tris, 150 mMol NaCl, 5 mMol EDTA, pH 7.40) homogenisiert und zweimal je 20 Min. bei 20.000 x g zentrifugiert. Das endgültige Pellet wird in Inkubations-Puffer (50 mMol Tris, 5 mMol MgCl₂, 0,2 % BSA, pH 7,40) 1:75, bezogen auf das Feuchtgewicht des Gewebes, resuspendiert. Je 0,1 ml Homogenat wird für 60 Min. bei 37°C mit 50 pM [125^I]-Angiotensin II (NEN, Dreieich, FRG) und steigenden Konzentrationen der Testsubstanz in einem Gesamtvolumen von 0,25 ml inkubiert. Die Inkubation wird durch rasche Filtration durch Glasfiber-Filtermatten beendet. Die Filter werden je 4 ml eiskaltem Puffer (25 mMol Tris, 2.5 mMol MgCl₂, 0,1 % BSA, pH 7,40) gewaschen. Die gebundene Radioaktivität wird in einem Gamma-Counter ermittelt. Aus der Dosis-Wirkungskurve wird der entsprechende IC₅₀-Wert ermittelt.
`Cc1cc(-c2cn3c(n2)CCCC3)cc2c1nc(C1CC1)n2Cc1ccc(-c2ccccc2C(=O)O)cc1` [Substanz D, 4'-[(2-Cyclopropyl-4-methyl-6-(5,6,7,8-tetrahydro-imidazo[1,2-a]pyridin-2-yl)-benzimidazol-1-yl)-methyl]-biphenyl-2-carbonsäure]: the pIC50 was 8.89.

As to `CCc1nc2c(C)cc(-c3nc4cc(F)ccc4n3C)cc2n1Cc1ccc(-c2ccccc2C(=O)O)cc1` [Substanz A, 4'-[(2-Ethyl-4-methyl-6-(1-methyl-5-fluor-benzimidazol-2-yl)-benzimidazol-1-yl)-methyl]-biphenyl-2-carbonsäure], the pIC50 was 8.13.

In the case of `CCCc1nc2c(C)cc(N3CCCCS3(=O)=O)cc2n1Cc1ccc(-c2ccccc2C(=O)O)cc1` [Substanz B, 4'-[(2-n-Propyl-4-methyl-6-(butansultam-1-yl)-benzimidazol-1-yl)-methyl]-biphenyl-2-carbonsäure], the pIC50 was 9.05.

On to `CCOc1nc2c(C)cc(-c3nc4ccccc4n3C)cc2n1Cc1ccc(-c2ccccc2-c2nnn[nH]2)cc1` [Substanz E, 4'-[(2-Ethoxy-4-methyl-6-(1-methyl-benzimidazol-2-yl)-benzimidazol-1-yl)-methyl]-2-(1H-tetrazol-5-yl)-biphenyl], for which the pIC50 is 8.48.

Regarding `Cc1cc(-c2cn3ccccc3n2)cc2c1nc(C1CC1)n2Cc1ccc(-c2ccccc2C(=O)O)cc1` [Substanz C, 4'-[(2-Cyclopropyl-4-methyl-6-(imidazo[1,2-a]pyridin-2-yl)-benzimidazol-1-yl)-methyl]-biphenyl-2-carbonsäure], the pIC50 was 8.77.

Source of the values: EP0581166A1, “Benzimidazoles, process for their preparation and their use as angiotensin-II antagonists” (Dr. Karl Thomae GmbH, priority 1992, dated 1994).
